Data: patent US10227331B2 (priority 2015, dated 2019)
Like-named read-outs stand apart in the source and are kept apart here.

Legend:
IMP-1 = IMP-1 (Serratia marcescens, UniProt P52699); assay: biochemical; format: biochemical; conditions: CCF2-FA substrate, 2 hours at 25° C; read-out: IMP-1 IC50
In short: (§1)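 Fluorescence assay of metallo-β-lactamase activity using CCF2-FA, a cephalosporin-linked 7-hydroxycoumarin–fluorescein substrate. Inhibitor, enzyme and substrate were incubated together for 2 hours at 25° C. IC50 came from a 4-parameter fit of inhibition versus inhibitor concentration.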

NDM-1 = NDM-1 (Klebsiella pneumoniae, UniProt C7C422); assay: biochemical; format: biochemical
Chain of NDM-1 (C7C422 whole entry, looked up, species assumed): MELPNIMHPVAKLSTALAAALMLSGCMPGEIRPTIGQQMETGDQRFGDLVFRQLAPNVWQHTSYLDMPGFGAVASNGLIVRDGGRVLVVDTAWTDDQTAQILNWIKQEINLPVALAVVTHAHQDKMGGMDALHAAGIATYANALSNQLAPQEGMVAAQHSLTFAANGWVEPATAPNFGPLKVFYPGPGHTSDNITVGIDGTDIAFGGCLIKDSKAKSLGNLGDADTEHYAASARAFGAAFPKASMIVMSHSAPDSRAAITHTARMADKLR
In short: as §1

VIM-1 = VIM-1 (Pseudomonas aeruginosa (strain ATCC 15692 / DSM 22644 / CIP 104116 / JCM 14847 / LMG 12228 / 1C / PRS 101 / PAO1), UniProt A0A0F7KYQ8); assay: biochemical; conditions: CCF2-FA substrate, 2 hours at 25° C
In short: as §1

[1] = system: Escherichia coli expressing NDM-1 (CLB30005, CLB30016); format: cell-based; conditions: NDM-1 (CLB30016), with imipenem 1 μg/ml, 95% inhibition of bacterial growth
In short: (§2)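 Clinical strains grown overnight on blood agar, then diluted 1:100 in 1.1× CAMHB and exposed to test compound with imipenem at 1 μg/ml. Incubation was 22–24 h at 35° C; growth was read by absorbance to find the compound concentration restoring imipenem susceptibility.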

[2] = system: Klebsiella pneumoniae expressing VIM-1 (IHMA599644); format: cell-based; conditions: VIM-1 (IHMA599644), with imipenem 1 μg/ml, 95% inhibition of bacterial growth
In short: as §2

[3] = system: Serratia marcescens expressing IMP-1 (CL5741); format: cell-based; conditions: IMP-1 (CL5741), with imipenem 1 μg/ml, 95% inhibition of bacterial growth
In short: as §2

[4] = system: P. aeruginosa expressing IMP-1, efflux+ (MB9798); format: cell-based, Pseudomonas aeruginosa; conditions: for P. aeruginosa expressing IMP-1, efflux+ (MB9798) MITC95: imipenem at 2 μg/mL, in the presence of a class A, C, D serine β-lactamase inhibitor closely related to relebactam; for Efflux ratio: ratio MITC95 PA_9798/MITC95 PA_9799
Excerpt: (§3) The strain background is Pseudomonas aeruginosa PAO1.

[5] = system: P. aeruginosa expressing IMP-1, efflux− (MB9799); assay: Efflux: concentration of MBL inhibitor which restores susceptibility to imipenem; format: cell-based, Pseudomonas aeruginosa; conditions: imipenem at 2 μg/mL, in the presence of a class A, C, D serine β-lactamase inhibitor closely related to relebactam
Excerpt: as §3

[6] = CCF2-FA substrate, 2 hours at 25° C, read-out: NDM-1 IC50

Chain of IMP-1 (P52699 whole entry, looked up, species assumed): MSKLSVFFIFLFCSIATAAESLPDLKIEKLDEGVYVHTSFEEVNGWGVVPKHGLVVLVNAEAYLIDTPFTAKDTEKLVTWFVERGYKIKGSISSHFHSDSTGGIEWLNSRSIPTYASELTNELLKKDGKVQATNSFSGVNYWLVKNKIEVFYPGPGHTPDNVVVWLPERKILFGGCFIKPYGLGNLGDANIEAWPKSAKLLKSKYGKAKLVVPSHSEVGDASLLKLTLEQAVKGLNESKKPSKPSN

Structure (SMILES): NCCS(=O)(=O)c1ccc(-c2cccc3[nH]c([C@H](N)CN)nc23)c(-c2nn[nH]n2)c1S(N)(=O)=O [Example 327, (R)-6-((2-Aminoethyl)sulfonyl)-3-(2-(1,2-diaminoethyl)-1H-benzo[d]imidazol-4-yl)-2-(2H-tetrazol-5-yl)benzenesulfonamide]
- IC50 (IMP-1): 2.23 nM
- IC50 (NDM-1): 1.02 nM
- IC50 (VIM-1): 0.455 nM
- Escherichia coli MITC95 [1]: 1.563 µM
- Klebsiella pneumoniae MITC95 [2]: 3.125 µM
- Serratia marcescens MITC95 [3]: 3.125 µM
- P. aeruginosa expressing IMP-1, efflux+ (MB9798) MITC95 [4]: 3.125 µM
- Efflux ratio [4]: 2.00
- P. aeruginosa expressing IMP-1, efflux− (MB9799) MITC95 [5]: 1.563 µM

Structure (SMILES): NCCS(=O)(=O)c1ccc(-c2cccc3[nH]c([C@H](N)CNC(=O)C(F)(F)F)nc23)c(-c2nn[nH]n2)c1S(N)(=O)=O [Example 328, (R)—N-(2-Amino-2-(4-(4-((2-aminoethyl)sulfonyl)-3-sulfamoyl-2-(2H-tetrazol-5-yl)phenyl)-1H-benzo[d]imidazol-2-yl)ethyl)-2,2,2-trifluoroacetamide]
- IC50 (IMP-1): 3.42 nM
- IC50 (NDM-1; [6]): 1.3 nM
- IC50 (VIM-1): 0.474 nM
- Escherichia coli MITC95 [1]: 1.563 µM
- Klebsiella pneumoniae MITC95 [2]: 3.125 µM
- Serratia marcescens MITC95 [3]: 3.125 µM
- P. aeruginosa expressing IMP-1, efflux+ (MB9798) MITC95 [4]: 3.125 µM
- Efflux ratio [4]: 2.00
- P. aeruginosa expressing IMP-1, efflux− (MB9799) MITC95 [5]: 1.563 µM

Structure (SMILES): NCCS(=O)(=O)c1ccc(-c2cccc3[nH]c([C@H](N)CO)nc23)c(-c2nn[nH]n2)c1S(N)(=O)=O [Example 329, (S)-3-(2-(1-amino-2-hydroxyethyl)-1H-benzo[d]imidazol-4-yl)-6-((2-aminoethyl)sulfonyl)-2-(2H-tetrazol-5-yl) benzenesulfonamide]
- IC50 (IMP-1): 1.93 nM
- IC50 (NDM-1; [6]): 0.404 nM
- IC50 (VIM-1): 0.282 nM
- Escherichia coli MITC95 [1]: 1.563 µM
- Klebsiella pneumoniae MITC95 [2]: 6.25 µM
- Serratia marcescens MITC95 [3]: 3.125 µM
- P. aeruginosa expressing IMP-1, efflux+ (MB9798) MITC95 [4]: 3.125 µM
- Efflux ratio [4]: 2.00
- P. aeruginosa expressing IMP-1, efflux− (MB9799) MITC95 [5]: 1.563 µM

Structure (SMILES): NCCS(=O)(=O)c1ccc(-c2cccc3[nH]c(CC(N)C(=O)O)nc23)c(-c2nn[nH]n2)c1S(N)(=O)=O (stereo not drawn) [Example 330, 2-amino-3-(4-(4-((2-aminoethyl)sulfonyl)-3-sulfamoyl-2-(2H-tetrazol-5-yl)phenyl)-1H-benzo[d]imidazol-2-yl)propanoic acid]
- IC50 (IMP-1): 3.61 nM
- IC50 (NDM-1; [6]): 0.675 nM
- IC50 (VIM-1): 0.639 nM
- Escherichia coli MITC95 [1]: 3.125 µM
- Klebsiella pneumoniae MITC95 [2]: 6.25 µM
- Serratia marcescens MITC95 [3]: 1.563 µM
- P. aeruginosa expressing IMP-1, efflux+ (MB9798) MITC95 [4]: 6.25 µM
- Efflux ratio [4]: 2.00
- P. aeruginosa expressing IMP-1, efflux− (MB9799) MITC95 [5]: 3.125 µM

Structure (SMILES): Cc1nc2c(-c3ccc(S(=O)(=O)CCN)c(S(N)(=O)=O)c3-c3nn[nH]n3)cccc2[nH]1 [Example 331, 6-((2-aminoethyl)sulfonyl)-3-(2-methyl-1H-benzo[d]imidazol-4-yl)-2-(2H-tetrazol-5-yl) benzenesulfonamide]
- IC50 (IMP-1): 0.302 nM
- IC50 (NDM-1; [6]): 0.165 nM
- IC50 (VIM-1): 0.183 nM
- Escherichia coli MITC95 [1]: 3.125 µM
- Klebsiella pneumoniae MITC95 [2]: 6.25 µM
- Serratia marcescens MITC95 [3]: 1.563 µM
- P. aeruginosa expressing IMP-1, efflux+ (MB9798) MITC95 [4]: 1.563 µM
- Efflux ratio [4]: 1.00
- P. aeruginosa expressing IMP-1, efflux− (MB9799) MITC95 [5]: 1.563 µM

Structure (SMILES): NS(=O)(=O)c1c(S(=O)(=O)C2CNC2)ccc(-c2cccc3[nH]cnc23)c1-c1nn[nH]n1 [Example 332, 6-(Azetidin-3-ylsulfonyl)-3-(1H-benzo[d]imidazol-4-yl)-2-(2H-tetrazol-5-yl)benzenesulfonamide]
- IC50 (IMP-1): 0.557 nM
- IC50 (NDM-1; [6]): 0.124 nM
- IC50 (VIM-1): 0.275 nM
- Escherichia coli MITC95 [1]: 0.7813 µM
- Klebsiella pneumoniae MITC95 [2]: 3.125 µM
- Serratia marcescens MITC95 [3]: 1.563 µM
- P. aeruginosa expressing IMP-1, efflux+ (MB9798) MITC95 [4]: 6.25 µM
- Efflux ratio [4]: 4.00
- P. aeruginosa expressing IMP-1, efflux− (MB9799) MITC95 [5]: 1.563 µM

Structure (SMILES): NCCS(=O)(=O)c1ccc(-c2cccc(NC(=O)CN)c2)c(-c2nn[nH]n2)c1S(N)(=O)=O [Example 333, 2-Amino-N-(4′-((2-aminoethyl)sulfonyl)-3′-sulfamoyl-2′-(2H-tetrazol-5-yl)-[1,1′-biphenyl]-3-yl)acetamide]
- IC50 (IMP-1): 10.3 nM
- IC50 (NDM-1; [6]): 3.44 nM
- IC50 (VIM-1): 0.312 nM
- Escherichia coli MITC95 [1]: 0.3906 µM
- Klebsiella pneumoniae MITC95 [2]: 1.563 µM
- Serratia marcescens MITC95 [3]: 1.563 µM
- P. aeruginosa expressing IMP-1, efflux+ (MB9798) MITC95 [4]: 6.25 µM
- Efflux ratio [4]: 8.00
- P. aeruginosa expressing IMP-1, efflux− (MB9799) MITC95 [5]: 0.7813 µM

Structure (SMILES): NCCS(=O)(=O)c1ccc(-c2cnc(N)c(C(N)=O)c2)c(-c2nn[nH]n2)c1S(N)(=O)=O [Example 335, 2-Amino-5-(4-((2-aminoethyl)sulfonyl)-3-sulfamoyl-2-(2H-tetrazol-5-yl)phenyl)nicotinamide]
- IC50 (IMP-1): 8.9 nM
- IC50 (NDM-1; [6]): 3.22 nM
- IC50 (VIM-1): 1.23 nM
- Escherichia coli MITC95 [1]: 1.563 µM
- Klebsiella pneumoniae MITC95 [2]: 3.125 µM
- Serratia marcescens MITC95 [3]: 1.563 µM
- P. aeruginosa expressing IMP-1, efflux+ (MB9798) MITC95 [4]: 12.5 µM
- Efflux ratio [4]: 8.00
- P. aeruginosa expressing IMP-1, efflux− (MB9799) MITC95 [5]: 1.563 µM

Structure (SMILES): NCCS(=O)(=O)c1ccc(-c2cnc(N)c(C(=O)N[C@H]3CCNC3)c2)c(-c2nn[nH]n2)c1S(N)(=O)=O [Example 336, (S)-2-Amino-5-(4-((2-aminoethyl)sulfonyl)-3-sulfamoyl-2-(2H-tetrazol-5-yl)phenyl)-N-(pyrrolidin-3-yl)nicotinamide]
- IC50 (IMP-1): 9.51 nM
- IC50 (NDM-1; [6]): 6.3 nM
- IC50 (VIM-1): 3.57 nM
- Escherichia coli MITC95 [1]: 0.7813 µM
- Klebsiella pneumoniae MITC95 [2]: 3.125 µM
- Serratia marcescens MITC95 [3]: 1.563 µM
- P. aeruginosa expressing IMP-1, efflux+ (MB9798) MITC95 [4]: 12.5 µM
- Efflux ratio [4]: 8.00
- P. aeruginosa expressing IMP-1, efflux− (MB9799) MITC95 [5]: 1.563 µM

Structure (SMILES): NCCS(=O)(=O)c1ccc(-c2cccc(NC(=O)CN)c2NC(=O)CN)c(-c2nn[nH]n2)c1S(N)(=O)=O [Example 338, N,N′-(4′-((2-Aminoethyl)sulfonyl)-3′-sulfamoyl-2′-(2H-tetrazol-5-yl)-[1,1′-biphenyl]-2,3-diyl)bis(2-aminoacetamide)]
- IC50 (IMP-1): 74.9 nM
- IC50 (NDM-1; [6]): 20.4 nM
- IC50 (VIM-1): 15.1 nM
- Escherichia coli MITC95 [1]: 1.563 µM
- Klebsiella pneumoniae MITC95 [2]: 6.25 µM
- Serratia marcescens MITC95 [3]: 3.125 µM
- P. aeruginosa expressing IMP-1, efflux+ (MB9798) MITC95 [4]: 25 µM
- Efflux ratio [4]: 4.00
- P. aeruginosa expressing IMP-1, efflux− (MB9799) MITC95 [5]: 6.25 µM

Structure (SMILES): NCCS(=O)(=O)c1ccc(-c2ccccc2N)c(-c2nn[nH]n2)c1S(N)(=O)=O [Example 339, 2′-Amino-4-((2-aminoethyl)sulfonyl)-2-(2H-tetrazol-5-yl)-[1,1′-biphenyl]-3-sulfonamide]
- IC50 (IMP-1): 3.42 nM
- IC50 (NDM-1; [6]): 2.52 nM
- IC50 (VIM-1): 1.78 nM
- Escherichia coli MITC95 [1]: 1.563 µM
- Klebsiella pneumoniae MITC95 [2]: 3.125 µM
- Serratia marcescens MITC95 [3]: 3.125 µM
- P. aeruginosa expressing IMP-1, efflux+ (MB9798) MITC95 [4]: 6.25 µM
- Efflux ratio [4]: 4.00
- P. aeruginosa expressing IMP-1, efflux− (MB9799) MITC95 [5]: 1.563 µM

Structure (SMILES): NCCS(=O)(=O)c1ccc(-c2ccccc2NC(=O)CN)c(-c2nn[nH]n2)c1S(N)(=O)=O [Example 340, 2-Amino-N-(4′-((2-aminoethyl)sulfonyl)-3′-sulfamoyl-2′-(2H-tetrazol-5-yl)-[1,1′-biphenyl]-2-yl)acetamide]
- IC50 (IMP-1): 107 nM
- IC50 (NDM-1; [6]): 24.8 nM
- IC50 (VIM-1): 8.16 nM
- Escherichia coli MITC95 [1]: 1.563 µM
- Klebsiella pneumoniae MITC95 [2]: 3.125 µM
- Serratia marcescens MITC95 [3]: 3.125 µM
- P. aeruginosa expressing IMP-1, efflux+ (MB9798) MITC95 [4]: 12.5 µM
- Efflux ratio [4]: 4.00
- P. aeruginosa expressing IMP-1, efflux− (MB9799) MITC95 [5]: 3.125 µM

Structure (SMILES): COC(=O)c1cccc(-c2ccc(S(=O)(=O)CCN)c(S(N)(=O)=O)c2-c2nn[nH]n2)c1NCCN [Example 341, Methyl 2-((2-aminoethyl)amino)-4′-((2-aminoethyl)sulfonyl)-3′-sulfamoyl-2′-(2H-tetrazol-5-yl)-[1,1′-biphenyl]-3-carboxylate]
- IC50 (IMP-1): 16.1 nM
- IC50 (NDM-1; [6]): 4.01 nM
- IC50 (VIM-1): 4.46 nM
- Escherichia coli MITC95 [1]: 1.563 µM
- Klebsiella pneumoniae MITC95 [2]: 3.125 µM
- Serratia marcescens MITC95 [3]: 3.125 µM
- P. aeruginosa expressing IMP-1, efflux+ (MB9798) MITC95 [4]: 25 µM
- Efflux ratio [4]: 15.99
- P. aeruginosa expressing IMP-1, efflux− (MB9799) MITC95 [5]: 1.563 µM
